ChEMBL document CHEMBL1201862, “PubChem BioAssay data set” (2004)
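Values below derive from 48-hour exposures of cells grown in 96-well plates, with endpoints linearly interpolated between the two concentrations bracketing the appropriate inhibition level. GI50: concentration for 50% inhibition of growth.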 Activity calls are given as the source filed them. No stated cut-off is given here; in the data, active = GI50 up to about 1.1 µM and inactive = higher.

Assays:
Assay in all cases: DTP human tumour cell line panel, 48 h
ACHN = test system: ACHN
OVCAR-5 = test system: OVCAR-5
MCF7 = test system: MCF7
HT-29 = test system: HT-29
HCT-116 = test system: HCT-116
DU-145 = test system: DU-145
786-0 = test system: 786-0
UACC-257 = test system: UACC-257
KM12 = test system: KM12
SK-MEL-5 = test system: SK-MEL-5
HOP-62 = test system: HOP-62
MOLT-4 = test system: MOLT-4
NCI-H226 = test system: NCI-H226
SNB-19 = test system: SNB-19
K562 = test system: K562
NCI-H23 = test system: NCI-H23
IGROV-1 = test system: IGROV-1
CAKI-1 = test system: CAKI-1
COLO 205 = test system: COLO 205
RXF 393 = test system: RXF 393
SF-268 = test system: SF-268
SR = test system: SR
U-251 = test system: U-251
SN12C = test system: SN12C
MDA-MB-231 = test system: MDA-MB-231
NCI/ADR-RES = test system: NCI/ADR-RES
OVCAR-4 = test system: OVCAR-4
OVCAR-3 = test system: OVCAR-3
M14 = test system: M14
HCT-15 = test system: HCT-15
PC-3 = test system: PC-3
Hs-578T = test system: Hs-578T
NCI-H522 = test system: NCI-H522
EKVX = test system: EKVX
TK-10 = test system: TK-10
HL-60 = test system: HL-60
LOX IMVI = test system: LOX IMVI
T47D = test system: T47D
A549 = test system: A549
SK-MEL-28 = test system: SK-MEL-28
CCRF-CEM = test system: CCRF-CEM
Malme-3M = test system: Malme-3M
HCC 2998 = test system: HCC 2998
UO-31 = test system: UO-31
SK-OV-3 = test system: SK-OV-3
BT-549 = test system: BT-549
NCI-H460 = test system: NCI-H460
OVCAR-8 = test system: OVCAR-8
A498 = test system: A498
SW-620 = test system: SW-620
SK-MEL-2 = test system: SK-MEL-2
HOP-92 = test system: HOP-92
SF-539 = test system: SF-539
MDA-N = test system: MDA-N
RPMI-8226 = test system: RPMI-8226
SNB-75 = test system: SNB-75
SF-295 = test system: SF-295
UACC-62 = test system: UACC-62
MDA-MB-435 = test system: MDA-MB-435

CN(C)/C=N/S(=O)(=O)c1nn2c(C=O)c(-c3cc4ccccc4oc3=O)nc2s1
GI50 (ACHN): 1.77 µM (inactive) | GI50 (OVCAR-5): 14.6 µM (inactive) | GI50 (MCF7): 3.54 µM (inactive) | GI50 (HT-29): 0.918 µM (active) | GI50 (HCT-116): 1.79 µM (inactive) | GI50 (DU-145): 5.56 µM (inactive) | GI50 (786-0): 1.92 µM (inactive) | GI50 (UACC-257): 11.8 µM (inactive) | GI50 (KM12): 12.1 µM (inactive) | GI50 (SK-MEL-5): 2.77 µM (inactive) | GI50 (HOP-62): > 30.2 µM (inactive) | GI50 (MOLT-4): 1.89 µM (inactive) | GI50 (NCI-H226): 15.2 µM (inactive) | GI50 (SNB-19): 39.4 µM (inactive) | GI50 (K562): 1.58 µM (inactive) | GI50 (NCI-H23): 9.68 µM (inactive) | GI50 (IGROV-1): 9.4 µM (inactive) | GI50 (CAKI-1): 1.75 µM (inactive) | GI50 (COLO 205): 1.91 µM (inactive) | GI50 (RXF 393): 2.58 µM (inactive) | GI50 (SF-268): 11.1 µM (inactive) | GI50 (SR): 5.73 µM (inactive) | GI50 (U-251): 8.09 µM (inactive) | GI50 (SN12C): 5.92 µM (inactive) | GI50 (MDA-MB-231): 10.7 µM (inactive) | GI50 (NCI/ADR-RES): 16.4 µM (inactive) | GI50 (OVCAR-4): 8.38 µM (inactive) | GI50 (OVCAR-3): 3.08 µM (inactive) | GI50 (M14): 7.83 µM (inactive) | GI50 (HCT-15): 3.4 µM | GI50 (PC-3): 12.4 µM (inactive) | GI50 (Hs-578T): 15.6 µM (inactive) | GI50 (NCI-H522): 1.16 µM (inactive) | GI50 (EKVX): 10.4 µM (inactive) | GI50 (TK-10): 3.52 µM (inactive) | GI50 (HL-60): 1.61 µM (inactive) | GI50 (LOX IMVI): 2.65 µM (inactive) | GI50 (T47D): 4.09 µM (inactive) | GI50 (A549): 13 µM (inactive) | GI50 (SK-MEL-28): 2.38 µM (inactive) | GI50 (CCRF-CEM): 0.276 µM (active) | GI50 (Malme-3M): 1.95 µM (inactive) | GI50 (HCC 2998): 19.5 µM (inactive) | GI50 (UO-31): 1.51 µM (inactive) | GI50 (SK-OV-3): 39.8 µM (inactive) | GI50 (BT-549): 8.65 µM (inactive) | GI50 (NCI-H460): 19.3 µM (inactive) | GI50 (OVCAR-8): 3.72 µM (inactive) | GI50 (A498): 22.3 µM (inactive) | GI50 (SW-620): 2.18 µM (inactive) | GI50 (SK-MEL-2): 11.9 µM (inactive) | GI50 (HOP-92): 4.08 µM (inactive) | GI50 (SF-539): 4.53 µM (inactive) | GI50 (MDA-N): 4.46 µM (inactive) | GI50 (RPMI-8226): 1.39 µM (inactive) | GI50 (SNB-75): 27.4 µM (inactive) | GI50 (SF-295): > 44.1 µM (inactive) | GI50 (UACC-62): 7.28 µM (inactive) | GI50 (MDA-MB-435): 5.25 µM (inactive)

O=C(O)C(CO)NC(=O)C1C(C(=O)O)C(c2ccccc2[N+](=O)[O-])C=C(c2ccco2)N1c1ccncc1 (stereo unspecified)
GI50 (ACHN): 1.91 µM (inactive) | GI50 (OVCAR-5): 11.7 µM (inactive) | GI50 (MCF7): 1.99 µM (inactive) | GI50 (HT-29): 1.81 µM (inactive) | GI50 (HCT-116): 1.67 µM (inactive) | GI50 (DU-145): 11.4 µM (inactive) | GI50 (786-0): 3.08 µM (inactive) | GI50 (UACC-257): 3.61 µM (inactive) | GI50 (KM12): 1.73 µM (inactive) | GI50 (SK-MEL-5): 4.49 µM (inactive) | GI50 (HOP-62): 12.2 µM (inactive) | GI50 (MOLT-4): 2.44 µM (inactive) | GI50 (NCI-H226): 14.5 µM (inactive) | GI50 (SNB-19): 12 µM (inactive) | GI50 (K562): 1.99 µM (inactive) | GI50 (NCI-H23): 7.16 µM (inactive) | GI50 (IGROV-1): 2.04 µM (inactive) | GI50 (CAKI-1): 8.85 µM (inactive) | GI50 (COLO 205): 4.62 µM (inactive) | GI50 (RXF 393): 1.64 µM (inactive) | GI50 (SF-268): 12.6 µM (inactive) | GI50 (SR): 0.9 µM (active) | GI50 (U-251): 2.34 µM (inactive) | GI50 (SN12C): 4.62 µM (inactive) | GI50 (MDA-MB-231): 3.33 µM (inactive) | GI50 (NCI/ADR-RES): 9.23 µM (inactive) | GI50 (OVCAR-4): 12.7 µM (inactive) | GI50 (OVCAR-3): 6.28 µM (inactive) | GI50 (M14): 4.32 µM (inactive) | GI50 (HCT-15): 1.95 µM | GI50 (PC-3): 9.35 µM (inactive) | GI50 (Hs-578T): 13.5 µM (inactive) | GI50 (NCI-H522): 4.61 µM (inactive) | GI50 (EKVX): 14.9 µM (inactive) | GI50 (TK-10): 2.9 µM (inactive) | GI50 (HL-60): 2.97 µM (inactive) | GI50 (LOX IMVI): 1.57 µM (inactive) | GI50 (T47D): 10.2 µM (inactive) | GI50 (A549): 3.26 µM (inactive) | GI50 (SK-MEL-28): 9.55 µM (inactive) | GI50 (CCRF-CEM): 2.19 µM (inactive) | GI50 (Malme-3M): 13.4 µM (inactive) | GI50 (HCC 2998): 4.91 µM (inactive) | GI50 (UO-31): 3.68 µM (inactive) | GI50 (SK-OV-3): 15.1 µM (inactive) | GI50 (BT-549): 5.85 µM (inactive) | GI50 (NCI-H460): 6.31 µM (inactive) | GI50 (OVCAR-8): 5.53 µM (inactive) | GI50 (A498): 11.8 µM (inactive) | GI50 (SW-620): 1.87 µM (inactive) | GI50 (SK-MEL-2): 16.3 µM (inactive) | GI50 (HOP-92): 12.1 µM (inactive) | GI50 (SF-539): 1.84 µM (inactive) | GI50 (MDA-N): 2.84 µM (inactive) | GI50 (RPMI-8226): 1.58 µM (inactive) | GI50 (SNB-75): 8.97 µM (inactive) | GI50 (SF-295): 7.05 µM (inactive) | GI50 (UACC-62): 7.83 µM (inactive) | GI50 (MDA-MB-435): 5.16 µM (inactive)

CCCCON1C[C@H](OC(C)=O)C(OC(C)=O)[C@H](OC(C)=O)C1 (stereo partly specified)
GI50 (ACHN): > 100 µM (inactive) | GI50 (MCF7): > 100 µM (inactive) | GI50 (HT-29): > 100 µM (inactive) | GI50 (HCT-116): > 100 µM (inactive) | GI50 (DU-145): > 100 µM (inactive) | GI50 (786-0): > 100 µM (inactive) | GI50 (UACC-257): > 100 µM (inactive) | GI50 (KM12): > 100 µM (inactive) | GI50 (SK-MEL-5): > 100 µM (inactive) | GI50 (HOP-62): > 100 µM (inactive) | GI50 (MOLT-4): > 100 µM (inactive) | GI50 (NCI-H226): > 100 µM (inactive) | GI50 (SNB-19): > 100 µM (inactive) | GI50 (K562): > 100 µM (inactive) | GI50 (NCI-H23): > 100 µM (inactive) | GI50 (IGROV-1): > 100 µM (inactive) | GI50 (CAKI-1): > 100 µM (inactive) | GI50 (COLO 205): > 100 µM (inactive) | GI50 (RXF 393): > 100 µM (inactive) | GI50 (SF-268): > 100 µM (inactive) | GI50 (SR): > 100 µM (inactive) | GI50 (U-251): > 100 µM (inactive) | GI50 (SN12C): > 100 µM (inactive) | GI50 (MDA-MB-231): > 100 µM (inactive) | GI50 (NCI/ADR-RES): > 100 µM (inactive) | GI50 (OVCAR-4): 7.14 µM (inactive) | GI50 (OVCAR-3): > 100 µM (inactive) | GI50 (M14): > 100 µM (inactive) | GI50 (HCT-15): > 100 µM | GI50 (PC-3): > 100 µM (inactive) | GI50 (Hs-578T): > 100 µM (inactive) | GI50 (NCI-H522): > 100 µM (inactive) | GI50 (EKVX): > 100 µM (inactive) | GI50 (TK-10): > 100 µM (inactive) | GI50 (HL-60): > 100 µM (inactive) | GI50 (LOX IMVI): > 100 µM (inactive) | GI50 (T47D): > 100 µM (inactive) | GI50 (A549): > 100 µM (inactive) | GI50 (SK-MEL-28): > 100 µM (inactive) | GI50 (CCRF-CEM): > 100 µM (inactive) | GI50 (Malme-3M): > 100 µM (inactive) | GI50 (HCC 2998): > 100 µM (inactive) | GI50 (UO-31): > 100 µM (inactive) | GI50 (SK-OV-3): > 100 µM (inactive) | GI50 (BT-549): > 100 µM (inactive) | GI50 (NCI-H460): > 100 µM (inactive) | GI50 (OVCAR-8): > 100 µM (inactive) | GI50 (A498): > 100 µM (inactive) | GI50 (SW-620): > 10 µM (inactive) | GI50 (SK-MEL-2): > 100 µM (inactive) | GI50 (HOP-92): > 100 µM (inactive) | GI50 (SF-539): > 100 µM (inactive) | GI50 (MDA-N): > 100 µM (inactive) | GI50 (RPMI-8226): > 100 µM (inactive) | GI50 (SNB-75): > 100 µM (inactive) | GI50 (SF-295): > 100 µM (inactive) | GI50 (UACC-62): > 100 µM (inactive) | GI50 (MDA-MB-435): > 100 µM (inactive)
